The target of one data set is P-gp (Homo sapiens, UniProt P08183). The data set is described as follows: Cell-based transport assay by flow cytometry, NIH3T3-ABCB1. The note with it: 10 µM, rhodamine 123 10 µM. How it is done: Cell lines (HEK293-ABCG, NIH3T3-ABCB1 and BHK21-ABCC1) were kept at 37 °C in the presence of 5% CO2 in DMEM high glucose (Gibco, Sao Paulo, Brazil) supplemented with 10% Fetal Bovine Serum (Gibco, Sao Paulo, Brazil) and 1% antibiotic (penicillin/streptomycin–Hyclone Laboratories, Logan, UT, USA). The stably transfected cells were kept with specific selection agent for each ABC transporter: ABCG2–G418 0.75 mg/mL, P-gp–Colchicine 60 ng/mL, MRP1–Methotrexate 0.1 mg/mL. The cells HEK293-ABCG2, NIH3T3-ABCB1 and BHK21-ABCC1, overexpressing ABCG2, P-gp and MRP1, respectively, were kindly provided by Dr. Attilio Di Pietro (IBCP, Lyon, France).
Cells were seeded into 24-well plates at a density of 1 × 10^5 cells/well and incubated for 48 h at 37 °C and 5% of CO2. […] The intracellular fluorescence was recorded by flow cytometry (FACS Calibur–Becton Dickinson, San Diego, CA, USA). […] The inhibition percent was calculated as follows: % of inhibition = ((C − S))/((I − S)) × 100, where “C” represents the treatment with substrate + compound in test, “S” represents the treatment with substrate alone and “I” represents the treatment with substrate + reference inhibitor.
This study was approved by the Ethics Committee of SCS/UFPR (CAAE 51428521.2.0000.0102). […] The protein concentration was quantified by Bradford assay. […]
(Flow cytometry measures light scatter and fluorescence of single cells or particles in a stream.)

For another data set, the target named is T1, ABCG2 (Homo sapiens, UniProt Q9UNQ0).
T1 sequence (Q9UNQ0 1-655): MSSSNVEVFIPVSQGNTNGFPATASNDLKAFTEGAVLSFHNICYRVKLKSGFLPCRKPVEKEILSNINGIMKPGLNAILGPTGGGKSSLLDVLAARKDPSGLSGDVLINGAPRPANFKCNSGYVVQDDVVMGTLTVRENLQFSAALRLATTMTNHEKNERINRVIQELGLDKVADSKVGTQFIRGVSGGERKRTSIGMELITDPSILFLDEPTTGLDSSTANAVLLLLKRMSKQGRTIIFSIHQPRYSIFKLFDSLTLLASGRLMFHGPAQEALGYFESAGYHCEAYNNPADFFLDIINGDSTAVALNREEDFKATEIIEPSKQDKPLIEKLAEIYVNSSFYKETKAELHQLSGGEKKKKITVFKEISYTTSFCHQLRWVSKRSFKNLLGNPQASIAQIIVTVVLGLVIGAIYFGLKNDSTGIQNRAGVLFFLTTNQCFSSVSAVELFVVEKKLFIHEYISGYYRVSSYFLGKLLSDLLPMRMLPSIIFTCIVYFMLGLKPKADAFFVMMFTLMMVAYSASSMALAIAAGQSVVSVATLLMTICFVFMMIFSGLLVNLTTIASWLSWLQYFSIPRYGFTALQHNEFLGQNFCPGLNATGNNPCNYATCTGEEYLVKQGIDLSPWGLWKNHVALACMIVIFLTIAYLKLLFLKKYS
The data set is described as follows: Cell-based transport assay by confocal microscopy. More on the design: expressed in transfected cells; host or cells: HEK293 (stably transfected, G418 selection; gift of Dr. Attilio Di Pietro). The note with it: 10 µM, hoechst 33342 2 µM. The procedure: Cells were seeded into 24-well plates at a density of 1 × 10^5 cells/well containing coverslips for microscopy and incubated for 48 h at 37 °C and 5% of CO2. Cells that adhered to the coverslips were treated with C4a and hoechst 33342 for 30 min at 37 °C. Then, the cell monolayer was washed with PBS at 37 °C and the coverslips removed from the plate and placed on slides for microscopy. The slides were then read in a confocal microscope Nikon A1R MP + (NIKON, Tokyo, Japan) using an oil-immersed 40× objective (with the numerical aperture of 1.15). A laser of 405 nm was used for excitation and the fluorescence emission was recorded using a bandpass filter of 425–475 nm. The software Nis Elements 4.20 (NIKON, Tokyo, Japan) was used for visualization of the images.

Chain of P-gp (P08183 whole entry): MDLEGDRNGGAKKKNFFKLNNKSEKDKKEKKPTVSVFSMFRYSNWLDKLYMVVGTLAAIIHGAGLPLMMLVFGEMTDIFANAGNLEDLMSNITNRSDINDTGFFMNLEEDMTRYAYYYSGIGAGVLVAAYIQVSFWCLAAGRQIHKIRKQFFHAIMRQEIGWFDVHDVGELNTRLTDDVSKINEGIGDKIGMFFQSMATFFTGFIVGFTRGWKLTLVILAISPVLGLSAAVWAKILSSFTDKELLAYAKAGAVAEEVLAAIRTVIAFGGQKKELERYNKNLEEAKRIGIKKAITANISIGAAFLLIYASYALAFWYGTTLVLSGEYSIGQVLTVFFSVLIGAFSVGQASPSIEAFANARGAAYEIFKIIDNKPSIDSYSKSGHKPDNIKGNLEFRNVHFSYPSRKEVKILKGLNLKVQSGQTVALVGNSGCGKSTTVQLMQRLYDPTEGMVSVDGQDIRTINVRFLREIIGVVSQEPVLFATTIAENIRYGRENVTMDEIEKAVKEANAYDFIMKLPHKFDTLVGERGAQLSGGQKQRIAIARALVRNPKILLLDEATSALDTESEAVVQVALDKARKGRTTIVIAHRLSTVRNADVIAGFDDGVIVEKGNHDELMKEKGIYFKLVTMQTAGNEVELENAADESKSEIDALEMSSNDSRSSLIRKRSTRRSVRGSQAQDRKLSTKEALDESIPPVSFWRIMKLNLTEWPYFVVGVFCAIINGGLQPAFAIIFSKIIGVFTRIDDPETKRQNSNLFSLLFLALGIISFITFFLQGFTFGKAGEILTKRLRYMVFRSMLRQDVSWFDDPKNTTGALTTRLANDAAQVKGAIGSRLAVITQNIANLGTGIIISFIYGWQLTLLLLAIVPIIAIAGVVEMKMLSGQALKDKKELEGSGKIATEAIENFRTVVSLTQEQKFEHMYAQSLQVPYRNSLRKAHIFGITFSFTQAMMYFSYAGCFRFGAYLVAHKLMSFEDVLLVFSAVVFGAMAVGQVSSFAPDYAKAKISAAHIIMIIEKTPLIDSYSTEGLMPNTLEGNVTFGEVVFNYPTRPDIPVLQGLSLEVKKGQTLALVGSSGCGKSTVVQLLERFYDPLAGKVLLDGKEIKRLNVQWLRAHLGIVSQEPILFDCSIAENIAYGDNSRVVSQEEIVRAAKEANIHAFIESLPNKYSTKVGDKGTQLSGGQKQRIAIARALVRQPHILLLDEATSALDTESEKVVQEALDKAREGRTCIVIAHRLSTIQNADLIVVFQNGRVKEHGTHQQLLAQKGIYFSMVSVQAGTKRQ

With `COc1ccc2[nH]cc(CCNC(=O)c3cc(=O)c4c(OCc5ccccc5Br)cccc4o3)c2c1` [C4a, chromone 4a], at P-gp, the “inhibition of rhodamine 123 efflux mediated by P-gp” value was “did not inhibit”. Further, the “inhibition of hoechst 33342 efflux mediated by ABCG2 (confocal microscopy)” value against ABCG2 is on record as “inhibited the efflux of all”.

These data come from PMC10144134, “Characterization of Potent ABCG2 Inhibitor Derived from Chromone: From the Mechanism of Inhibition to Human Extracellular Vesicles for Drug Delivery” (Pharmaceutics, 2023).
